Laboratory results: PubChem BioAssay AID248 (DTP/NCI, 2004)
“And” between values parts separate entries of the source, which are not always exact repeats. Equal entries are not always repeated. Toxic doses and inconclusive results are not listed. No stated cut-off is given here; in the data, active means T/C of 150% or more; inactive means T/C below 125%. Square brackets hold non-standard residues; d marks the D form. Peptide text beside a SMILES is read from it. ξ: configuration not given here. ξI = CCC(C)C(N)C(=O)O

System: L1210 leukemia ip in BDF1 mice, survival T/C
Experiment: NCI In Vivo Anticancer Drug Screen. Data for tumor model L1210 Leukemia (intraperitoneal) in B6D2F1 (BDF1) mice
Conditions: endpoint: mean survival time, higher = longer survival
Outline: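 Survival endpoint. Drug-treated group vs vehicle group, expressed as T divided by C. Tumor passaged by transplantation.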

[1] = dose: 12.5 mg/kg/injection, schedule: Q04DX003 (ip), vehicle: saline with Tween-80
[2] = dose: 25.0 mg/kg/injection, schedule: Q04DX003 (ip), vehicle: saline with Tween-80
[3] = dose: 50.0 mg/kg/injection, schedule: Q04DX003 (ip), vehicle: saline with Tween-80
[4] = dose: 25.0 mg/kg/injection, schedule: Q01DX009 (ip), vehicle: water
[5] = dose: 50.0 mg/kg/injection, schedule: Q01DX009 (ip), vehicle: water
[6] = dose: 100.0 mg/kg/injection, schedule: Q01DX001 (ip), vehicle: saline
[7] = dose: 200.0 mg/kg/injection, schedule: Q01DX001 (ip), vehicle: saline
[8] = dose: 100.0 mg/kg/injection, schedule: Q01DX009 (ip), vehicle: Klucel (hydroxypropylcellulose) (HPC)
[9] = dose: 200.0 mg/kg/injection, schedule: Q01DX009 (ip), vehicle: Klucel (hydroxypropylcellulose) (HPC)
[10] = dose: 100.0 mg/kg/injection, schedule: Q04DX002 (ip), vehicle: saline
[11] = dose: 200.0 mg/kg/injection, schedule: Q04DX002 (ip), vehicle: saline
[12] = dose: 400.0 mg/kg/injection, schedule: Q04DX002 (ip), vehicle: saline
[13] = dose: 400.0 mg/kg/injection, schedule: Q01DX001 (ip), vehicle: saline
[14] = dose: 100.0 mg/kg/injection, schedule: Q04DX002 (ip), vehicle: saline with Tween-80
[15] = dose: 200.0 mg/kg/injection, schedule: Q04DX002 (ip), vehicle: saline with Tween-80
[16] = dose: 400.0 mg/kg/injection, schedule: Q04DX002 (ip), vehicle: saline with Tween-80

Measured: T/C

CCC[P+](c1ccccc1)(c1ccccc1)c1ccccc1
inactive: dose: 3.13 mg/kg/injection, schedule: Q01DX009 (ip), vehicle: saline with Tween-80 123 % of control | dose: 3.13 mg/kg/injection, schedule: Q04DX003 (ip), vehicle: saline with Tween-80 102 % of control | dose: 5.56 mg/kg/injection, schedule: Q01DX009 (ip), vehicle: saline with Tween-80 118 % of control | dose: 6.25 mg/kg/injection, schedule: Q01DX009 (ip), vehicle: saline with Tween-80 118 % of control | dose: 6.25 mg/kg/injection, schedule: Q04DX003 (ip), vehicle: saline with Tween-80 96 % of control | dose: 8.33 mg/kg/injection, schedule: Q01DX009 (ip), vehicle: saline with Tween-80 121 % of control | dose: 9.5 mg/kg/injection, schedule: Q01DX001 (ip), vehicle: other 111 % of control | dose: 12.5 mg/kg/injection, schedule: Q01DX001 (ip), vehicle: carboxymethylcellulose (CMC) 101 % of control | [1] 105 % of control | dose: 12.5 mg/kg/injection, schedule: Q04DX003 (ip), vehicle: saline 100 % of control | dose: 18.75 mg/kg/injection, schedule: Q01DX009 (ip), vehicle: saline with Tween-80 120 % of control | dose: 19.0 mg/kg/injection, schedule: Q01DX001 (ip), vehicle: other 102 % of control | dose: 25.0 mg/kg/injection, schedule: Q01DX001 (ip), vehicle: carboxymethylcellulose (CMC) 104 % of control | [2] 105 % of control | dose: 25.0 mg/kg/injection, schedule: Q04DX003 (ip), vehicle: saline 108 % of control | dose: 38.0 mg/kg/injection, schedule: Q01DX001 (ip), vehicle: other 107 % of control | dose: 50.0 mg/kg/injection, schedule: Q01DX001 (ip), vehicle: carboxymethylcellulose (CMC) 99 % of control | [3] 105 % of control

CC(=C(C#N)C#N)c1ccccc1
inactive: [1] 95 % of control | [2] 94 % of control | [3] 89 % of control

NC(=O)c1c2n(c3ncnc(N)c13)C1OC(CO)C(O)C1S2 (configuration not stated)
inactive: [4] 91 % of control | [5] 91 % of control

CC(=O)CC(=O)Nc1nc(C)cs1
inactive: dose: 75.0 mg/kg/injection, schedule: Q01DX001 (ip), vehicle: Klucel (hydroxypropylcellulose) (HPC) 100 % of control | dose: 150.0 mg/kg/injection, schedule: Q01DX001 (ip), vehicle: Klucel (hydroxypropylcellulose) (HPC) 100 % of control | dose: 300.0 mg/kg/injection, schedule: Q01DX001 (ip), vehicle: Klucel (hydroxypropylcellulose) (HPC) 95 % of control

Cc1ccc(Cl)nn1
inactive: [6] 108 % of control | [7] 109 % of control

Nc1nc(=S)ss1
inactive: dose: 100.0 mg/kg/injection, schedule: Q04DX003 (ip), vehicle: Klucel (hydroxypropylcellulose) (HPC) 108 % of control | dose: 200.0 mg/kg/injection, schedule: Q04DX003 (ip), vehicle: Klucel (hydroxypropylcellulose) (HPC) 105 % of control | dose: 400.0 mg/kg/injection, schedule: Q04DX003 (ip), vehicle: Klucel (hydroxypropylcellulose) (HPC) 97 % of control

O=C(O)C1=CCCc2ccc3ccccc3c21
inactive: dose: 75.0 mg/kg/injection, schedule: Q04DX003 (ip), vehicle: saline 100 % of control | [8] 96 % of control | dose: 150.0 mg/kg/injection, schedule: Q04DX003 (ip), vehicle: saline 100 % of control | [9] 102 % of control | dose: 300.0 mg/kg/injection, schedule: Q04DX003 (ip), vehicle: saline 97 % of control

O=C(O)CSC(SCC(=O)O)c1ccc(Cl)cc1Cl
inactive: [10] 94 % of control | [11] 98 % of control | [12] 119 % of control

Cc1ccc2nc(-c3ccc(N)cc3)sc2c1S(=O)(=O)O
inactive: dose: 100.0 mg/kg/injection, schedule: Q01DX009 (ip), vehicle: saline 100 % of control | [10] 92 % of control | dose: 200.0 mg/kg/injection, schedule: Q01DX009 (ip), vehicle: saline 96 % of control | [11] 105 % of control | dose: 400.0 mg/kg/injection, schedule: Q01DX009 (ip), vehicle: saline 110 % of control | [12] 99 % of control

CSc1ncc(COC(C)=O)c(N)n1
inactive: dose: 100.0 mg/kg/injection, schedule: Q01DX001 (ip), vehicle: Klucel (hydroxypropylcellulose) (HPC) 97 % of control | [8] 102 % of control | dose: 200.0 mg/kg/injection, schedule: Q01DX001 (ip), vehicle: Klucel (hydroxypropylcellulose) (HPC) 99 % of control | [9] 96 % of control | dose: 400.0 mg/kg/injection, schedule: Q01DX001 (ip), vehicle: Klucel (hydroxypropylcellulose) (HPC) 92 % of control | dose: 400.0 mg/kg/injection, schedule: Q01DX009 (ip), vehicle: Klucel (hydroxypropylcellulose) (HPC) 104 % of control

O=S(=O)(O)Nc1ccc(S(=O)(=O)O)c2ccccc12
inactive: dose: 50.0 mg/kg/injection, schedule: Q01DX001 (ip), vehicle: saline 102 % of control | [6] 93 % of control | [7] 96 % of control | [13] 98 % of control

CCC(C)C(NC(=O)CN)C(=O)O (configuration not stated) (H-Gly-[ξI]-OH)
inactive: [14] 97 % of control | dose: 100.0 mg/kg/injection, schedule: Q04DX003 (ip), vehicle: saline 98 % of control | [15] 102 % of control | dose: 200.0 mg/kg/injection, schedule: Q04DX003 (ip), vehicle: saline 98 % of control | [16] 97 % of control | dose: 400.0 mg/kg/injection, schedule: Q04DX003 (ip), vehicle: saline 91 % of control

CC(=O)n1ncc2ccc(N)cc21
inactive: [4] 89 % of control | [5] 101 % of control | dose: 100.0 mg/kg/injection, schedule: Q01DX009 (ip), vehicle: water 96 % of control | dose: 100.0 mg/kg/injection, schedule: Q04DX003 (ip), vehicle: water 100 % of control | dose: 200.0 mg/kg/injection, schedule: Q04DX003 (ip), vehicle: water 96 % of control

[O-][n+]1onc(-c2ccccn2)c1-c1ccccn1
inactive: [14] 95 % of control | [15] 100 % of control | [16] 103 % of control

COc1ccc(C(=S)N2CCN(c3ccccc3Cl)CC2)cc1
inactive: [6] 101 % of control | [7] 91 % of control | [13] 90 % of control

O=C(Nc1ccccc1C(F)(F)F)Nc1cccc2c(O)cccc12
inactive: dose: 100.0 mg/kg/injection, schedule: Q01DX001 (ip), vehicle: carboxymethylcellulose (CMC) 93 % of control and 100 % of control | dose: 100.0 mg/kg/injection, schedule: Q01DX009 (ip), vehicle: carboxymethylcellulose (CMC) 100 % of control and 91 % of control | dose: 100.0 mg/kg/injection, schedule: Q04DX002 (ip), vehicle: carboxymethylcellulose (CMC) 86 % of control | dose: 100.0 mg/kg/injection, schedule: Q04DX003 (ip), vehicle: carboxymethylcellulose (CMC) 88 % of control and 91 % of control | dose: 200.0 mg/kg/injection, schedule: Q01DX001 (ip), vehicle: carboxymethylcellulose (CMC) 93 % of control and 89 % of control | dose: 200.0 mg/kg/injection, schedule: Q01DX009 (ip), vehicle: carboxymethylcellulose (CMC) 100 % of control and 103 % of control | dose: 200.0 mg/kg/injection, schedule: Q04DX002 (ip), vehicle: carboxymethylcellulose (CMC) 96 % of control and 89 % of control | dose: 200.0 mg/kg/injection, schedule: Q04DX003 (ip), vehicle: carboxymethylcellulose (CMC) 97 % of control and 88 % of control | dose: 400.0 mg/kg/injection, schedule: Q01DX001 (ip), vehicle: carboxymethylcellulose (CMC) 94 % of control and 90 % of control | dose: 400.0 mg/kg/injection, schedule: Q01DX009 (ip), vehicle: carboxymethylcellulose (CMC) 96 % of control and 91 % of control | dose: 400.0 mg/kg/injection, schedule: Q04DX002 (ip), vehicle: carboxymethylcellulose (CMC) 89 % of control and 90 % of control | dose: 400.0 mg/kg/injection, schedule: Q04DX003 (ip), vehicle: carboxymethylcellulose (CMC) 97 % of control and 88 % of control

O=C(O)CC(Sc1ccccc1)C(=O)O (configuration not stated)
inactive: dose: 100.0 mg/kg/injection, schedule: Q04DX002 (ip), vehicle: saline + alcohol 99 % of control | dose: 200.0 mg/kg/injection, schedule: Q04DX002 (ip), vehicle: saline + alcohol 102 % of control | dose: 400.0 mg/kg/injection, schedule: Q04DX002 (ip), vehicle: saline + alcohol 99 % of control
